Columns and labels:
[1] = test system: P-TEFb; experiment: BiFC assay, YC.P-TEFb coexpressed with YN.CTD in HEK293 cells; assay type: cell-based; conditions: for number of YFP-positive cells: versus normal culture conditions
Text: Sequences encoding amino acids 1-154 (YN) and 155-238 (YC) of YFP were amplified and cloned in mammalian expression plasmids. The YN.CTD chimera was constructed by inserting DNA fragments from a 52X heptapeptide (52 X SEQ ID NO: 4 (SEQ ID NO: 7)) CTD coding plasmid with a linker sequence encoding a nuclear localization signal, SEQ ID NO: 5. The YC.PTEFb chimera was constructed by inserting DNA fragments corresponding to P-TEFb into the YC plasmid, with Cdk9 and CycT1 sequences genetically fused to express as a single chimeric polypeptide, that can form a functional P-TEFb molecule. A polynucleotide coding for the linker of SEQ ID NO: 6 was optionally utilized in the constructs, between P-TEFb or CTD sequences and their associated fluorophores fragments. All proteins contained an anti-c-Myc antibody epitope tag at the N termini, and their expression in cells was confirmed by Western blotting using an anti-c-Myc antibody.
(§1) HeLa or HEK293 cells growing in log phase were transfected with plasmid DNA encoding YN.CTD and YC.P-TEFb fusion proteins by use of a lipofection agent. Incorporation of YC.P-TEFb into the 7SK snRNP was confirmed by immunoprecipitation and Western blot analysis with antibodies to the components of the 7SK snRNP.
The BiFC assay was used to detect interactions between released free P-TEFb and its natural substrate, RNA polymerase II CTD. When YC.P-TEFb was coexpressed with YN.CTD in HEK293 cells under normal culture conditions, very few weakly YFP-positive cells were detected. […] Because the emission peak of YFP (527 nm) is similar to that of GFP (509 nm), the BiFC-positive cells appeared green. […] YC.P-TEFb was employed to monitor P-TEFb activation by BiFC in cells.
A time-dependent increase in BiFC signals was monitored by time-lapse fluorescence microscopic analysis. HEK293 cells expressing YC.P-TEFb and YN.CTD were treated with 5 micromolar SAHA, and fluorescent images were taken every 3 min. BiFC signals were detected by 30 min after the addition of SAHA and reached a peak at a time point between 75 and 90 min. At later times, more intense and punctate nuclear staining reflected the accumulation of active P-TEFb in nuclear speckles. This finding is consistent with previous observations of P-TEFb release by SAHA with a consideration of the time required for maturation of the fluorophore.

[2] = test system: 7SK snRNP; experiment: Immunoprecipitation and Western blot of 7SK snRNP fractions in cells expressing YC.P-TEFb; assay type: cell-based; conditions: HeLa or HEK293 cells, SAHA treatment
Text: as §1

## Nc1ncn([C@@H]2O[C@H](CO)[C@@H](O)[C@H]2O)c(=O)n1 [AzaC]
[1]; time-lapse fluorescence microscopy
  time-dependent increase in BiFC signals (P-TEFb release): released P-TEFb

## CC(=O)NCCCCCCNC(C)=O [HMBA]
[1]
  number of YFP-positive cells: increased significantly

## O=C(CCCCCCC(=O)Nc1ccccc1)NO [SAHA]
[2]
  amounts of YC.P-TEFb and endogenous CycT1 proteins in 7SK snRNP fractions: reduced
  levels of free P-TEFb: increased
[1]; 5 micromolar, time-lapse fluorescence microscopy, images every 3 min
  time at which BiFC signals were detected after addition: ≤ 30 min
[1]
  number of YFP-positive cells: increased significantly

## CN1CCc2c(c3ccccc3n2Cc2ccc(C(=O)NO)cc2)C1 [tubastatin A]
[1]
  number of YFP-positive cells: did not increase
